US10272061B2, “Compositions and methods for unoccluded transdermal oxybutynin therapy” (Allergan Sales, LLC, priority 2000, dated 2019)
Read-outs that look alike come from different tables or passages of the source. Blank lines part the entries; values can stand above or below the compound they belong to.

Assays:
[1] = Plasma concentrations after single application of 4.4% oxybutynin topical gel to the abdomen; format: in vivo, human; settings: single 3 g of 4.4% oxybutynin gel, 400 cm^2 abdomen; for time over which mean plasma levels increased steadily to Cmax: 'during the following' hours
Excerpt: (§1) A clinical study in 22 healthy volunteers, 19 to 45 years of age, evaluated plasma concentrations of oxybutynin and the N-desethyloxybutynin metabolite after a single topical application of oxybutynin gel. The study employed a single dose design to evaluate the pharmacokinetics and skin tolerability of a gel formulation for oxybutynin hydrochloride.
(§2) Volunteers received a single topical administration of 3 g of 4.4% oxybutynin gel to a 400 cm^2 area of unbroken skin on the abdomen. Blood samples were periodically collected throughout the study period and plasma was harvested according to standard procedures. Plasma oxybutynin and N-desethyloxybutynin metabolite concentrations were estimated using a high performance liquid chromatography-tandem mass spectrometry method performed according to established guidelines.

[2] = Plasma concentrations after single application of 13.2% oxybutynin topical gel to the abdomen; format: in vivo, human; settings: single 1 g of 13.2% oxybutynin gel, 133 cm^2 abdomen; for time over which mean plasma levels increased steadily to Cmax: 'during the following' hours
Excerpt: as §1
as §2, with “1” for “3”, “13.2%” for “4.4%”, “133” for “400”

[3] = Single and multiple dose pharmacokinetics after oxybutynin gel administration; format: in vivo, human; settings: for mean Cmax: 72 hour evaluation; for half-life: read-out: elimination half-life (converted)
Description: A clinical study in 20 healthy volunteers, 20 to 44 years of age, evaluated the single and multiple dose pharmacokinetics of oxybutynin and N-desethyloxybutynin following topical oxybutynin gel administration. The study employed a two-period multiple dose study.
In the first treatment period, volunteers received a topical administration of 3 g of 4.4% oxybutynin gel followed by a 72 hour evaluation period. The second treatment period, oxybutynin gel was administered topically to the volunteers on 7 consecutive mornings. The two treatment periods were separated by a 7-day washout period. Blood samples were periodically collected throughout the study periods and plasma was harvested according to standard procedures. Plasma oxybutynin and N-desethyloxybutynin metabolite concentrations were estimated using high performance liquid chromatography-tandem mass spectrometry method performed according to established guidelines.
After a 7-day washout following the initial gel application, subjects applied daily 3 g doses of oxybutynin gel to rotating body sites (abdomen, upper arms, thighs) for 7 consecutive days. Plasma samples were drawn each morning before the next gel application.

[4] = Single-dose pharmacokinetics after oxybutynin gel on 400 cm^2 and 800 cm^2 application areas on the thighs; format: in vivo, human; settings: 3 g of 4.4% oxybutynin gel; for Cmax: at 48 hours
Excerpt: A clinical study in 21 healthy volunteers, 21 to 45 years of age, evaluated the effect of application surface area on the single-dose pharmacokinetic of oxybutynin following topical oxybutynin gel administration. The study employed a two-period, open-labeled, randomized crossover design to evaluate the effect of application surface area on the single dose pharmacokinetics and safety of a topical gel formulation of oxybutynin hydrochloride.
Volunteers received topical administrations of 3 g of 4.4% oxybutynin gel at the beginning of two 72 hour treatment periods, with a minimum six day washout separating the treatment periods. Each volunteer received a dose applied to a 400 cm^2 area in one treatment period, and a dose to an 800 cm^2 area the other treatment period. The sequential order of the treatment periods was randomized. Blood samples were periodically collected throughout the study periods and plasma was harvested according to standard procedures. Plasma oxybutynin and N-desethyloxybutynin metabolite concentrations were evaluated using high performance liquid chromatography-tandem mass spectrometry method performed according to established guidelines.

[5] = Plasma concentrations after single and repeated application of 4.4% oxybutynin gel to the abdomen; format: in vivo; settings: human, topical, once daily
Excerpt: as §1, with “in 12” for “in 22”, “to 41” for “to 45”, “after” for “after a”, “single and repeated” for “single”, “topical applications” for “topical application”, “a single-period, open-label, multiple” for “a single”
as §2, with “received” for “received a single”, “topical administrations” for “topical administration”, “gel on 3 consecutive mornings. Each volunteer received the oxybutynin gel administrations on” for “gel to”, “a defined” for “a 400 cm^2”, “using” for “using a”

[6] = plasma, first period: single 3 g of 4.4% oxybutynin gel
[7] = second period: 7 consecutive daily 3 g gel applications
[8] = 400 cm^2 application area, thighs
[9] = 800 cm^2 application area, thighs
[10] = human, topical, plasma, read-out: elimination half-life (converted)
[11] = first period: single 3 g of 4.4% oxybutynin gel
[12] = second period, after the final of 7 daily gel applications

SMILES: CCNCC#CCOC(=O)C(O)(c1ccccc1)C1CCCCC1 (stereo not shown) [N-desethyloxybutynin]
elimination half-life ([1]; plasma): approximately 26.81 hours | time of second plasma peak after dosing [1]: approximately 48 hours | mean maximum plasma concentration (Cmax) ([1]; healthy volunteers): 2.20 ng/mL | time at which measurable plasma levels were detectable (first sampling point) ([1]; healthy volunteers): 2 h | time over which mean plasma levels increased steadily to Cmax [1]: 28 h | elimination half-life ([2]; plasma): 19.53 h | mean Cmax ([2]; plasma, healthy volunteers): 1.12 ng/mL | time of second plasma peak after dosing [2]: approximately 48 hours | time at which measurable plasma levels were detectable (first sampling point) ([2]; healthy volunteers): 2 h | time over which mean plasma levels increased steadily to Cmax [2]: 28 h | mean Cmax [3, 6]: 4.50 ng/mL | mean AUC ([3]; plasma, first period: single 3 g of 4.4% oxybutynin gel, 72 hour treatment period): 0.157 µg·h/mL | mean AUC ([3]; plasma, second period, first 24 hours after the final of 7 daily 3 g gel applications): 0.125 µg·h/mL | time of maximum concentration after the final gel application [3, 7]: approximately 16 hours | mean Cmax following the final gel application ([3]; second period: 7 consecutive daily 3 g gel applications, N-desethyloxybutynin: maximum for the 0-24 hour interval): 6.44 ng/mL | mean plasma level at the initial peak [4, 8]: 2.21 ng/mL | time at which measurable plasma levels were detectable [4, 8]: ≤ 2 h | time of the initial plasma peak [4, 8]: 28 h | plasma peak during the first 24 hours following dosing [4, 9]: 2.39 ng/mL | Cmax ([4]; plasma N-desethyloxybutynin, 400 cm^2 application area): 2.72 ng/mL | Cmax ([4]; plasma, 800 cm^2 application area): 3.40 ng/mL

Cmax ([1]; human, plasma, topical, healthy volunteers, read-out: mean maximum plasma concentration (Cmax)): 2.17 ng/mL | half-life [1, 10]: ~18.4 h | time of second plasma peak after dosing [1]: approximately 48 hours | time at which measurable plasma levels were detectable (first sampling point) ([1]; healthy volunteers): 2 h | time over which mean plasma levels increased steadily to Cmax [1]: 24 h | Cmax ([2]; human, topical, plasma, healthy volunteers): 1.17 ng/mL | half-life [2, 10]: 17.7 h | time of second plasma peak after dosing [2]: approximately 48 hours | time at which measurable plasma levels were detectable (first sampling point) ([2]; healthy volunteers): 2 h | time over which mean plasma levels increased steadily to Cmax [2]: 26 h | concentration at 24 h ([5]; plasma, 3 g of 4.4% oxybutynin gel, after the initial application of 3 g of 4.4% oxybutynin gel, read-out: plasma concentration at the 24 hour post-dose timepoint, mean±SD): 4.02 ± 2.19 ng/mL | concentration at 24 h ([5]; plasma, 3 g of 4.4% oxybutynin gel, after the second daily application of 3 g of 4.4% oxybutynin gel, read-out: plasma concentration 24 hours after application, mean±SD): 4.47 ± 2.38 ng/mL | concentration at 24 h ([5]; plasma, 3 g of 4.4% oxybutynin gel, after the third daily application of 3 g of 4.4% oxybutynin gel, read-out: plasma concentration at the 24 hour post-dose timepoint, mean±SD): 5.86 ± 3.17 ng/mL | half-life ([5]; 3 g of 4.4% oxybutynin gel, plasma elimination after the third application of 4.4% oxybutynin gel, read-out: apparent half-life (converted)): ~18 h | Cmax ([5]; plasma, following the third application of 3 g of 4.4% oxybutynin gel, read-out: Cmax, mean±SD): 6.05 ± 3.21 ng/mL | average plasma concentration during the 20 hours following the application ([3]; after the final of 7 daily 3 g gel applications): 6.22 ng/mL | mean oxybutynin AUC higher than mean N-desethyloxybutynin AUC [3, 11]: ~41% | mean oxybutynin Cmax higher than mean N-desethyloxybutynin Cmax [3, 11]: approximately 18% | time within which measurable plasma levels were detectable [3, 11]: two | Cmax ([3]; human, plasma, topical, 3 g of oxybutynin gel, once daily, second period: 7 consecutive daily 3 g gel applications, N-desethyloxybutynin: maximum for the 0-24 hour interval, read-out: mean Cmax following the final gel application): 9.01 ng/mL | concentration at 0 h ([3]; human, plasma, topical, 3 g of oxybutynin gel, once daily, second period: 7 consecutive daily 3 g gel applications, read-out: mean plasma concentration at Time 0 of the final gel application): 4.63 ng/mL | half-life ([3]; human, topical, 3 g of oxybutynin gel, once daily, plasma, after the final of 7 daily 3 g gel applications): ~24 h | AUC ([3]; human, topical, 3 g of oxybutynin gel, once daily, plasma, second period, first 24 hours after the final of 7 daily 3 g gel applications): 0.149 µg·h/mL | AUC ([3]; human, topical, plasma, first period: single 3 g of 4.4% oxybutynin gel, 72 hour treatment period): 0.186 µg·h/mL | half-life ([3]; human, topical, plasma, first period: single 3 g of 4.4% oxybutynin gel): ~18 h | mean Cmax [3, 6]: 6.35 ng/mL | mean oxybutynin AUC higher than mean N-desethyloxybutynin AUC [3, 12]: ~19% | mean oxybutynin Cmax higher than mean N-desethyloxybutynin Cmax [3, 12]: approximately 40% | time of maximum concentration after the final gel application [3, 7]: approximately 23 hours | time at which measurable plasma levels were detectable [4, 8]: 2 h | time of the initial plasma peak [4, 8]: 24 h | plasma peak during the first 24 hours following dosing [4, 9]: 2.92 ng/mL | concentration at 24 hours ([4]; human, plasma, topical, 400 cm^2 application area, thighs, read-out: mean plasma level at the initial peak): 2.25 ng/mL | Cmax ([4]; human, topical, plasma, 800 cm^2 application area, read-out: Cmax): 3.8 ng/mL
SMILES: CCN(CC)CC#CCOC(=O)C(O)(c1ccccc1)C1CCCCC1 (stereo not shown) [oxybutynin]
